Activity calls are given as the source filed them. No cut-off for these calls is given here.
Tests used:
U2OS [1] = assay: Induction of apoptosis in human U2OS cells assessed as cell rounding at 30 uM after 48 hrs by phase-contrast microscopic analysis; assay type: functional, cell-based
U2OS [2] = assay: Induction of apoptosis in human U2OS cells after 48 hrs by MTT assay in presence of cyclosporine A; assay type: functional, cell-based
[3] = Induction of death receptor signaling-mediated apoptosis in human U2OS cells assessed as increase caspase-3 activity measuring release of pNA at 30 uM after 48 hrs by spectrophotometry; assay type: cell-based
[4] = Induction of death receptor signaling-mediated apoptosis in human U2OS cells assessed as increase in FasL level at 30 uM after 12 to 48 hrs by Western blotting method; assay type: cell-based
[5] = Induction of death receptor signaling-mediated apoptosis in human U2OS cells assessed as decrease in cell viability at 30 uM after 48 hrs by MTT assay in presence of caspase-3 inhibitor […]; assay type: cell-based
U2OS [6] = assay: Induction of apoptosis in human U2OS cells after 48 hrs by MTT assay in presence of anti-FasL monoclonal antibody; assay type: functional, cell-based
[7] = Induction of death receptor signaling-mediated apoptosis in human U2OS cells assessed as increase in Apaf-1 level at 30 uM after 12 to 48 hrs by Western blotting; assay type: cell-based
[8] = Induction of death receptor signaling-mediated apoptosis in human U2OS cells assessed as increase in production of reactive oxygen species at 30 uM after 2 to 12 hrs by flow cytometry relative to control; assay type: cell-based; conditions: TDE = time-dependent effect
[9] = Induction of death receptor signaling-mediated apoptosis in human U2OS cells assessed as increase in caspase-8 level at 30 uM after 12 to 48 hrs by Western blotting method; assay type: cell-based
MDA-MB-231 = assay: Cytotoxicity against human MDA-MB-231 cells after 48 hrs by MTT assay; assay type: functional, cell-based; conditions: MDA-MB-231, 48 h
[10] = Induction of death receptor signaling-mediated apoptosis in human U2OS cells assessed as increase in Fas expression at 30 uM after 12 hrs using FasL-FITC mAb by flow cytometry (Rvb= 2.01+/-0.74 %); assay type: cell-based
U-937 = assay: Cytotoxicity against human U937 cells after 48 hrs by MTT assay; assay type: functional, cell-based; conditions: U-937, 48 h
U2OS [11] = assay: Cytotoxicity against human U2OS cells after 48 hrs by MTT assay; assay type: functional, cell-based
[12] = Induction of death receptor signaling-mediated apoptosis in human U2OS cells assessed as increase caspase-9 activity measuring release of pNA at 30 uM after 48 hrs by spectrophotometry; assay type: cell-based
[13] = Induction of death receptor signaling-mediated apoptosis in human U2OS cells assessed as increase in AIF level at 30 uM after 12 to 48 hrs by Western blotting; assay type: cell-based
[14] = Cytotoxicity against human FOB cells assessed as reduction in cell number after 48 hrs by MTT assay relative to control; assay type: cell-based
[15] = Induction of death receptor signaling-mediated apoptosis in human U2OS cells assessed as decrease in Bcl-2 level at 30 uM after 12 to 48 hrs by Western blotting; assay type: cell-based
U2OS [16] = assay: Induction of apoptosis in human U2OS cells after 48 hrs by MTT assay in presence of ROS scavenger NAC; assay type: functional, cell-based
U2OS [17] = assay: Induction of apoptosis in human U2OS cells assessed as cell shrinking at 30 uM after 48 hrs by phase-contrast microscopic analysis; assay type: functional, cell-based
[18] = Induction of death receptor signaling-mediated apoptosis in human U2OS cells assessed as decrease in Bid level at 30 uM after 12 to 48 hrs by Western blotting; assay type: cell-based
COLO 205 = assay: Cytotoxicity against human COLO205 cells after 48 hrs by MTT assay; assay type: functional, cell-based; conditions: COLO 205, 48 h
[19] = Induction of death receptor signaling-mediated apoptosis in human U2OS cells assessed decrease in as cell viability at 30 uM after 48 hrs by MTT assay in presence of caspase-9 inhibitor Z-LEHD-FMK; assay type: cell-based
[20] = Induction of death receptor signaling-mediated apoptosis in human U2OS cells assessed as increase in Endo-G level at 30 uM after 12 to 48 hrs by Western blotting; assay type: cell-based
[21] = Cytotoxicity against human HT29-AK cells after 48 hrs by MTT assay; assay type: functional, cell-based
[22] = Induction of death receptor signaling-mediated apoptosis in human U2OS cells assessed as decrease in mitochondrial membrane potential at 30 uM after 2 to 12 hrs relative to control; assay type: cell-based; conditions: TDE = time-dependent effect
HL-60 = assay: Cytotoxicity against human HL60 cells after 48 hrs by MTT assay; assay type: functional, cell-based; conditions: HL-60, 48 h
[23] = Induction of death receptor signaling-mediated apoptosis in human U2OS cells assessed as increase in FasL expression at 30 uM after 12 hrs using FasL-FITC mAb by flow cytometry (Rvb= 1.23+/-0.11 %); assay type: cell-based
[24] = Induction of death receptor signaling-mediated apoptosis in human U2OS cells assessed as increase in cytochrome c level at 30 uM after 12 to 48 hrs by Western blotting; assay type: cell-based
[25] = Induction of death receptor signaling-mediated apoptosis in human U2OS cells assessed as increase caspase-8 activity measuring release of pNA at 30 uM after 48 hrs by spectrophotometry; assay type: cell-based
[26] = Induction of death receptor signaling-mediated apoptosis in human U2OS cells assessed as increase in Fas level at 30 uM after 12 to 48 hrs by Western blotting method; assay type: cell-based
[27] = Induction of death receptor signaling-mediated apoptosis in human U2OS cells assessed as increase in FADD level at 30 uM after 12 to 48 hrs by Western blotting method; assay type: cell-based
[28] = Induction of death receptor signaling-mediated apoptosis in human U2OS cells assessed as decrease in cell viability at 30 uM after 48 hrs by MTT assay in presence of caspase-8 inhibitor Z-IETD-FMK; assay type: cell-based
[29] = Induction of death receptor signaling-mediated apoptosis in human U2OS cells assessed as increase in caspase-9 level at 30 uM after 12 to 48 hrs by Western blotting; assay type: cell-based
U2OS [30] = assay: Induction of DNA damage in human U2OS cells by comet assay; assay type: functional, cell-based
[31] = Induction of death receptor signaling-mediated apoptosis in human U2OS cells assessed as increase in Bax level at 30 uM after 12 to 48 hrs by Western blotting; assay type: cell-based
[32] = Induction of death receptor signaling-mediated apoptosis in human U2OS cells assessed as decrease in pro-caspase3 level at 30 uM after 12 to 48 hrs by Western blotting method; assay type: cell-based
U2OS [33] = assay: Cytotoxicity against human U2OS cells assessed as growth inhibition after 48 hrs by MTT assay relative to control; assay type: functional, cell-based
MCF7 = assay: Cytotoxicity against human MCF7 cells after 48 hrs by MTT assay; assay type: functional, cell-based; conditions: MCF7, 48 h

Structure (SMILES): COc1cccc(Nc2nc(-c3cccc(F)c3)nc3ccc(F)cc23)c1
- Activity (U2OS [1]): Active
- Activity (U2OS [2]): inactive
- Activity [3]: Active
- Activity [4]: Active
- Activity [5]: inactive
- Activity (U2OS [6]): inactive
- Activity [7]: Active
- Activity [8]: tde
- Activity [9]: Active
- IC50 (MDA-MB-231): 47.1 µM
- Activity [10]: 76.2%
- IC50 (U-937): 39.6 µM
- IC50 (U2OS [11]): 30.3 µM
- Activity [12]: Active
- Activity [13]: Active
- Activity [14]: Non-toxic
- Activity [15]: Active
- Activity (U2OS [16]): inactive
- Activity (U2OS [17]): Active
- Activity [18]: Active
- IC50 (COLO 205): 44.7 µM
- Activity [19]: inactive
- Activity [20]: Active
- IC50 [21]: 40.4 µM
- Activity [22]: tde
- IC50 (HL-60): 35.5 µM
- Activity [23]: 76.2%
- Activity [24]: Active
- Activity [25]: Active
- Activity [26]: Active
- Activity [27]: Active
- Activity [28]: inactive
- Activity [29]: Active
- Activity (U2OS [30]): Dose-dependent effect
- Activity [31]: Active
- Activity [32]: Active
- growth inhibition (GI) (U2OS [33]): Dose-dependent effect
- IC50 (MCF7): 46.3 µM
